# From ChEMBL document CHEMBL4842346, “Improving the metabolic stability of antifungal compounds based on a scaffold hopping strategy: Design, synthesis, and structure-activity relationship studies of dihydrooxazole derivatives” (Eur J Med Chem, 2021)
# Key:
# Cryptococcus neoformans [1] = assay: Antifungal activity against Cryptococcus neoformans CGMCC2.3161 assessed as inhibition of fungal growth by NCCLS protocol based method; assay type: functional
# [2] = Metabolic stability in human liver microsomes assessed as half life at 100 uM in the presence of NADPH measured upto 60 mins by LC-MS/MS analysis; assay type: ADME, Microsome
# Aspergillus fumigatus = assay: Antifungal activity against Aspergillus fumigatus CGMCC3.7795 assessed as inhibition of fungal growth by NCCLS protocol based method; assay type: functional
# Candida albicans [3] = assay: Antifungal activity against Candida albicans SC5314 assessed as inhibition of fungal growth by NCCLS protocol based method; assay type: functional
# Candida albicans [4] = assay: Antifungal activity against Candida albicans CPCC400523 assessed as inhibition of fungal growth by NCCLS protocol based method; assay type: functional
# [5] = molecular target: T1, Lanosterol 14-alpha demethylase (Candida albicans (strain SC5314 / ATCC MYA-2876) (Yeast), UniProt P10613); assay: Inhibition of Candida albicans CYP51 assessed as lanosterol level at 0.015 ug/ml measured after 18 hrs by GC-MS analysis relative to control; design: scale not given: the % may be the effect or the level left; settings: at 0.015 µg/mL
# T1 sequence (P10613 whole entry): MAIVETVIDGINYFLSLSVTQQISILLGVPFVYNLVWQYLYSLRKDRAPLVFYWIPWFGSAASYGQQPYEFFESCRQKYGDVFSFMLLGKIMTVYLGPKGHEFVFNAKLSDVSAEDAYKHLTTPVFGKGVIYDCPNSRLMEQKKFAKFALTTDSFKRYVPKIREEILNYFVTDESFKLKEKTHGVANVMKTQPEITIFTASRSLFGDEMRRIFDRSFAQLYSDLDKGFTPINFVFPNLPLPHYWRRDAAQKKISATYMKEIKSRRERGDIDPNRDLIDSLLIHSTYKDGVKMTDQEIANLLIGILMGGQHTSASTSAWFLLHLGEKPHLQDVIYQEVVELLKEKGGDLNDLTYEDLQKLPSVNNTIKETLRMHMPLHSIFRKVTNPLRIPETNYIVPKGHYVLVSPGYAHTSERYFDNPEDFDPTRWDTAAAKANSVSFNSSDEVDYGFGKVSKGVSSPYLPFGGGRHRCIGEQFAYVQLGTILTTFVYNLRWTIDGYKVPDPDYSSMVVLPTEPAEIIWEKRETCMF
# [6] = Metabolic stability in human liver microsomes assessed as compound remaining at 100 uM measured after 60 mins in the presence of NADPH by LC-MS/MS analysis; assay type: ADME, Microsome; settings: read-out: Stabilty
# Candida tropicalis = assay: Antifungal activity against Candida tropicalis GIM2.183 assessed as inhibition of fungal growth by NCCLS protocol based method; assay type: functional
# [7] = Metabolic stability in human plasma assessed as half life at 100 uM measured after 60 mins by LC-MS/MS analysis; assay type: ADME, cell-free
# [8] = AUClast in Sprague-Dawley rat at 10 mg/kg, po measured after 24 hrs by LC-MS/MS analysis; assay type: ADME, organism-based; design: route oral, time 24 hrs, dose 10 mg/kg; settings: in vivo
# [9] = Metabolic stability in human plasma assessed as parent compound remaining at 100 uM measured after 60 mins by LC-MS/MS analysis; assay type: ADME, cell-free; settings: read-out: Stabilty
# [10] = Metabolic stability in human plasma assessed as parent compound remaining at 100 uM measured after 120 mins by LC-MS/MS analysis; assay type: ADME, cell-free; settings: 2 h
# Candida albicans [11] = assay: Antifungal activity against Candida albicans GIM2.194 assessed as inhibition of fungal growth by NCCLS protocol based method; assay type: functional
# Candida albicans [12] = assay: Antifungal activity against fluconazole and itraconazole resistant Candida albicans 17# assessed as inhibition of fungal growth by NCCLS protocol based method; assay type: functional
# Cytochrome P450 1A2 = molecular target: T2, Cytochrome P450 1A2 (Homo sapiens, UniProt P05177); assay: Inhibition of CYP1A2 in human liver microsome incubated for 10 mins in the presence of NADPH by LC-MS/MS analysis; assay type: ADME, microsomes
# T2 sequence (P05177 whole entry): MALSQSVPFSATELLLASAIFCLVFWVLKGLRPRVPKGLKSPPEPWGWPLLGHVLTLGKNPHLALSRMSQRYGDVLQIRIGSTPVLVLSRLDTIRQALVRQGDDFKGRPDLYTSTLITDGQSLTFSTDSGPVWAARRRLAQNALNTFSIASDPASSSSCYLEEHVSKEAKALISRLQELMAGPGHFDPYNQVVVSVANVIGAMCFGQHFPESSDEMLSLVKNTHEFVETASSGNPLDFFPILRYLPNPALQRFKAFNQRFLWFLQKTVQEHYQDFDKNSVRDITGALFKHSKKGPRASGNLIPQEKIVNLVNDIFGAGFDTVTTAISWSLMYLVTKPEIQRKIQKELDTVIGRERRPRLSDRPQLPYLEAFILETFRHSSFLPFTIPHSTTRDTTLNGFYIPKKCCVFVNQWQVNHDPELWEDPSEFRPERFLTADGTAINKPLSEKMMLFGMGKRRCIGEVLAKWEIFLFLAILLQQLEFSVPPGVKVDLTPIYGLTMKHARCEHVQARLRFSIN
# Cytochrome P450 2C19 = Cytochrome P450 2C19 (Homo sapiens, UniProt P33261); assay: Inhibition of CYP2C19 in human liver microsome incubated for 10 mins in the presence of NADPH by LC-MS/MS analysis; assay type: ADME, microsomes
# Cytochrome P450 2C19, sequence (P33261 whole entry): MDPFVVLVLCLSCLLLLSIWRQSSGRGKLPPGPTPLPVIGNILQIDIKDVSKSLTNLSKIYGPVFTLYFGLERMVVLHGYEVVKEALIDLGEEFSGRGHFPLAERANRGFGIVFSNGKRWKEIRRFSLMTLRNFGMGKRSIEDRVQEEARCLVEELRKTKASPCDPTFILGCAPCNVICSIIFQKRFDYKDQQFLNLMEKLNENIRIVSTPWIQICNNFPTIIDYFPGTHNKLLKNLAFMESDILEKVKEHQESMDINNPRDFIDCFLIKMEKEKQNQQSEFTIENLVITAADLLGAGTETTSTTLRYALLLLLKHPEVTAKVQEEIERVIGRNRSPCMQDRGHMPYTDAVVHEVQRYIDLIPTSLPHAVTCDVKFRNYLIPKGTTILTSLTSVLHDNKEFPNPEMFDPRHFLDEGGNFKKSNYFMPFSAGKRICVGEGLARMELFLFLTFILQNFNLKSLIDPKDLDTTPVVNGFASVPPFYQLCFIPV
# Cytochrome P450 2D6 = Cytochrome P450 2D6 (Homo sapiens, UniProt P10635); assay: Inhibition of CYP2D6 in human liver microsome incubated for 10 mins in the presence of NADPH by LC-MS/MS analysis; assay type: ADME, microsomes
# Cytochrome P450 2D6, sequence (P10635 whole entry): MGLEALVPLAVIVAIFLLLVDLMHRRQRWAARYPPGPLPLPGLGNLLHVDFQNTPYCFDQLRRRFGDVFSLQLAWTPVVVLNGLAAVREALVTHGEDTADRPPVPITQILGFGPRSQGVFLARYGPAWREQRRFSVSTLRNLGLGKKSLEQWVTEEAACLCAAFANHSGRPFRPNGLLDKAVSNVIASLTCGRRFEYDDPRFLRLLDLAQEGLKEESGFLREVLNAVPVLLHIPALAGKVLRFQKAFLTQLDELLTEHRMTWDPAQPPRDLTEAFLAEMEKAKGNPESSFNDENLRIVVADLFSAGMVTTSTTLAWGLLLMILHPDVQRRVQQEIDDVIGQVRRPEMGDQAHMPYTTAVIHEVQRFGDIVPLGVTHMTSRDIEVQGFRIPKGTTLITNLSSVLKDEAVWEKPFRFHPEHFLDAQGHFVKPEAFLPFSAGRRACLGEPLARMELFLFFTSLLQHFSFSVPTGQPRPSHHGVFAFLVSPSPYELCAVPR
# Cytochrome P450 3A4 = Cytochrome P450 3A4 (Homo sapiens, UniProt P08684); assay: Inhibition of CYP3A4 in human liver microsome incubated for 10 mins in the presence of NADPH by LC-MS/MS analysis; assay type: ADME, microsomes
# Cytochrome P450 3A4, sequence (P08684 whole entry): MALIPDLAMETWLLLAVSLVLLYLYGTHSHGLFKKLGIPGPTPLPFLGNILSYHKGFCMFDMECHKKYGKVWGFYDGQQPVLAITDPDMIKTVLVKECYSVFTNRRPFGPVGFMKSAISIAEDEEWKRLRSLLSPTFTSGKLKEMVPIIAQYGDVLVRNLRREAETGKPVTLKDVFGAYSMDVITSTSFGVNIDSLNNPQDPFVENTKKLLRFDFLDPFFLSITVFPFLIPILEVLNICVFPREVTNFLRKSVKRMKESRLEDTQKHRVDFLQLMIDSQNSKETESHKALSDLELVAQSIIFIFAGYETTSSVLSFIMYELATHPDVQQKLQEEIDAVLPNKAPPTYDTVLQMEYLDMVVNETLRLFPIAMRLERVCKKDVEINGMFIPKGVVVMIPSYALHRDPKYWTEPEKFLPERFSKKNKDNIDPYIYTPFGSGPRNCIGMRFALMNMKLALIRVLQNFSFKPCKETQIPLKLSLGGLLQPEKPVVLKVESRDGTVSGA
# Candida albicans [13] = assay: Antifungal activity against fluconazole resistant Candida albicans CaR assessed as inhibition of fungal growth by NCCLS protocol based method; assay type: functional
# Cytochrome P450 2C9 = Cytochrome P450 2C9 (Homo sapiens, UniProt P11712); assay: Inhibition of CYP2C9 in human liver microsome incubated for 10 mins in the presence of NADPH by LC-MS/MS analysis; assay type: ADME, microsomes
# Cytochrome P450 2C9, sequence (P11712 whole entry): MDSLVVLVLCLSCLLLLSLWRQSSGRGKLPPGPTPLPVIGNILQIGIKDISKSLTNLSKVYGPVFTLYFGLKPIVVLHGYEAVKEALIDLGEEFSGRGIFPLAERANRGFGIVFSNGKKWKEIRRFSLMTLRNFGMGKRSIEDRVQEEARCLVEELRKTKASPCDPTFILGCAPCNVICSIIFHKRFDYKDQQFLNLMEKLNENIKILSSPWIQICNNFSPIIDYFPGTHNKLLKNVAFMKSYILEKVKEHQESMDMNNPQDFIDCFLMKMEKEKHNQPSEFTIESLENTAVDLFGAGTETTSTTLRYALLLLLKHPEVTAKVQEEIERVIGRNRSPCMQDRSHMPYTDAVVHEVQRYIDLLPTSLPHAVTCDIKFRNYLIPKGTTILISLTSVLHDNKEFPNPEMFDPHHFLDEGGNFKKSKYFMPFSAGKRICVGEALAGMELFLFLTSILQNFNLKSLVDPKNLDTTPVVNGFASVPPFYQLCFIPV
# [14] = Half life in Sprague-Dawley rat at 2 mg/kg, iv measured up to 24 hrs by LC-MS/MS analysis; assay type: ADME, organism-based; settings: in vivo
# Pichia kudriavzevii = assay: Antifungal activity against Candida krusei GIM2.1 assessed as inhibition of fungal growth by NCCLS protocol based method; assay type: functional
# [15] = Volume of distribution at steady state in Sprague-Dawley rat at 2 mg/kg, iv measured after 24 hrs by LC-MS/MS analysis; assay type: ADME, organism-based; settings: in vivo, read-out: Vdss
# [16] = AUC (0-infinity) in Sprague-Dawley rat at 2 mg/kg, iv measured after 24 hrs by LC-MS/MS analysis; assay type: ADME, organism-based; design: route intravenous, dose 2 mg/kg, time 24 hrs; settings: in vivo
# [17] = Initial plasma concentration in Sprague-Dawley rat at 2 mg/kg, iv by LC-MS/MS analysis; assay type: ADME, organism-based
# [18] = Tmax in Sprague-Dawley rat at 10 mg/kg, po measured up to 24 hrs by LC-MS/MS analysis; assay type: ADME, organism-based; settings: in vivo
# [19] = Clearance in Sprague-Dawley rat at 2 mg/kg, iv measured after 24 hrs by LC-MS/MS analysis; assay type: ADME, organism-based; settings: in vivo
# [20] = molecular target: T1, Lanosterol 14-alpha demethylase; assay: Inhibition of Candida albicans CYP51 assessed as unknown sterol level at 0.015 ug/ml measured after 18 hrs by GC-MS analysis relative to control; design: scale not given: the % may be the effect or the level left; settings: at 0.015 µg/mL
# [21] = Metabolic stability in human liver microsomes assessed as compound remaining at 100 uM measured after 60 mins in the absence of NADPH by LC-MS/MS analysis; assay type: ADME, Microsome; settings: read-out: Stabilty
# [22] = molecular target: T1, Lanosterol 14-alpha demethylase; assay: Inhibition of Candida albicans CYP51 assessed as 14alpha-methylergosta-8,24(28)-dien3beta-6alpha-diol level at 0.015 ug/ml measured after 18 hrs by GC-MS analysis relative to control; design: scale not given: the % may be the effect or the level left; settings: at 0.015 µg/mL
# [23] = molecular target: T1, Lanosterol 14-alpha demethylase; assay: Inhibition of Candida albicans CYP51 assessed as eburicol level at 0.015 ug/ml measured after 18 hrs by GC-MS analysis relative to control; design: scale not given: the % may be the effect or the level left; settings: at 0.015 µg/mL
# Candida parapsilosis = assay: Antifungal activity against Candida parapsilosis GIM2.190 assessed as inhibition of fungal growth by NCCLS protocol based method; assay type: functional; settings: Lodderomyces parapsilosis
# [24] = AUClast in Sprague-Dawley rat at 2 mg/kg, iv measured after 24 hrs by LC-MS/MS analysis; assay type: ADME, organism-based; design: route intravenous, dose 2 mg/kg, time 24 hrs; settings: in vivo
# [25] = Cmax in Sprague-Dawley rat at 10 mg/kg, po measured up to 24 hrs by LC-MS/MS analysis; assay type: ADME, organism-based; design: route oral, dose 10 mg/kg, time <=24; settings: in vivo
# [26] = molecular target: T1, Lanosterol 14-alpha demethylase; assay: Inhibition of Candida albicans CYP51 assessed as ergosterol level at 0.015 ug/ml measured after 18 hrs by GC-MS analysis relative to control; design: scale not given: the % may be the effect or the level left; settings: at 0.015 µg/mL
# [27] = Intrinsic microsomal clearance in human liver microsomes at 100 uM in the presence of NADPH measured up to 60 mins by LC-MS/MS analysis; assay type: ADME, Microsome; settings: read-out: CLH
# [28] = Oral bioavailability in Sprague-Dawley rat at 10 mg/kg measured after 24 hrs by LC-MS/MS analysis; assay type: ADME, organism-based; settings: in vivo
# Cryptococcus neoformans [29] = assay: Antifungal activity against Cryptococcus neoformans GIM2.209 assessed as inhibition of fungal growth by NCCLS protocol based method; assay type: functional
smiles,measurement,setting,value
CC[C@H](C)[C@@H](Cn1ccnc1)NC(=O)c1ccc(-c2ccccc2)cc1F,MIC,Cryptococcus neoformans [1],1 µg/mL
same,half-life at 100 µM,[2],0.06 h
same,MIC,Aspergillus fumigatus,2 µg/mL
same,MIC,Candida albicans [3],< 0.03 µg/mL
same,MIC,Candida albicans [4],< 0.03 µg/mL
Fc1ccc(C2(Cn3cncn3)COC(c3ccc(-c4ccccc4F)cc3)=N2)cc1 (centres undefined),Activity,[5],18.89%
same,"remaining at 1 h, 100 µM",[6],75.4%
same,MIC,Candida tropicalis,0.06 µg/mL
same,half-life at 100 µM,[7],> 4.8 h
same,AUC(0-t) at 24 h,[8],10400 ng·h/mL
same,"remaining at 1 h, 100 µM",[9],95.3%
same,Stabilty,[10],120.4%
same,MIC,Candida albicans [11],< 0.03 µg/mL
same,MIC,Candida albicans [12],> 64 µg/mL
same,IC50,Cytochrome P450 1A2,6.64 µM
same,IC50,Cytochrome P450 2C19,1.56 µM
same,IC50,Cytochrome P450 2D6,> 50 µM
same,IC50,Cytochrome P450 3A4,14.8 µM
same,MIC,Candida albicans [13],0.25 µg/mL
same,IC50,Cytochrome P450 2C9,2.3 µM
same,half-life,[14],9.35 h
same,MIC,Pichia kudriavzevii,0.25 µg/mL
same,Vd,[15],7.18 L/kg
same,AUC(0-inf),[16],3130 ng·h/mL
same,C0,[17],758 ng/mL
same,Tmax,[18],5.33 h
same,clearance,[19],10.8 mL/min/kg
same,Activity,[20],1.97%
same,half-life at 100 µM,[2],> 2.42 h
same,"remaining at 1 h, 100 µM",[21],89.6%
same,Activity,[22],32.74%
same,MIC,Aspergillus fumigatus,> 64 µg/mL
same,MIC,Candida albicans [3],< 0.03 µg/mL
same,Activity,[23],5.08%
same,MIC,Candida parapsilosis,8 µg/mL
same,AUC(0-t) at 24 h,[24],2690 ng·h/mL
same,Cmax,[25],754 ng/mL
same,Activity,[26],38.82%
same,microsomal CLint at 100 µM,[27],< 9.6 µL/min/mg
same,bioavailability,[28],77.7%
Fc1cccc(-c2ccc(C3=NC(Cn4cncn4)(c4ccc(Cl)cc4)CO3)cc2)c1 (centres undefined),MIC,Candida tropicalis,0.06 µg/mL
same,MIC,Candida albicans [11],< 0.03 µg/mL
same,MIC,Candida albicans [12],> 64 µg/mL
same,MIC,Candida albicans [13],0.25 µg/mL
same,MIC,Pichia kudriavzevii,0.25 µg/mL
same,MIC,Aspergillus fumigatus,> 64 µg/mL
same,MIC,Candida albicans [3],< 0.03 µg/mL
same,MIC,Candida parapsilosis,4 µg/mL
c1ccc(-c2ccc(C3=NC(Cn4ccnc4)(c4ccccc4)CO3)cc2)cc1 (centres undefined),MIC,Cryptococcus neoformans [29],32 µg/mL
same,MIC,Candida tropicalis,< 0.125 µg/mL
same,MIC,Candida albicans [11],< 0.125 µg/mL
same,half-life at 100 µM,[2],1.77 h
same,MIC,Aspergillus fumigatus,1 µg/mL
same,MIC,Candida albicans [3],< 0.125 µg/mL
